Data as given in ChEMBL document CHEMBL1201862, “PubChem BioAssay data set” (2004).
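Briefly, cells in 96-well plates were exposed to five compound concentrations for 48 h, and endpoints were estimated by linear interpolation. Abbreviation: GI50, concentration required for 50% inhibition of growth.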 Activity calls are given as the source filed them. Cut-off read from the data, not from the text of the source: active = GI50 up to about 1.1 µM and inactive = higher.

Key:
Assay in all cases: DTP human tumour cell line panel, 48 h
SN12C = test system: SN12C
A549 = test system: A549
MDA-MB-231 = test system: MDA-MB-231
U-251 = test system: U-251
OVCAR-5 = test system: OVCAR-5
K562 = test system: K562
UACC-62 = test system: UACC-62
UACC-257 = test system: UACC-257
MCF7 = test system: MCF7
ACHN = test system: ACHN
786-0 = test system: 786-0
SNB-19 = test system: SNB-19
NCI-H522 = test system: NCI-H522
SF-295 = test system: SF-295
SK-MEL-2 = test system: SK-MEL-2
A498 = test system: A498
SK-MEL-5 = test system: SK-MEL-5
Malme-3M = test system: Malme-3M
IGROV-1 = test system: IGROV-1
OVCAR-3 = test system: OVCAR-3
CAKI-1 = test system: CAKI-1
TK-10 = test system: TK-10
NCI-H226 = test system: NCI-H226
HL-60 = test system: HL-60
SK-OV-3 = test system: SK-OV-3
PC-3 = test system: PC-3
MDA-MB-435 = test system: MDA-MB-435
OVCAR-8 = test system: OVCAR-8
NCI-H460 = test system: NCI-H460
UO-31 = test system: UO-31
HCT-116 = test system: HCT-116
EKVX = test system: EKVX
NCI-H23 = test system: NCI-H23
CCRF-CEM = test system: CCRF-CEM
DU-145 = test system: DU-145
HOP-92 = test system: HOP-92
SNB-75 = test system: SNB-75
COLO 205 = test system: COLO 205
LOX IMVI = test system: LOX IMVI
NCI/ADR-RES = test system: NCI/ADR-RES
HCC 2998 = test system: HCC 2998
OVCAR-4 = test system: OVCAR-4
HCT-15 = test system: HCT-15
RPMI-8226 = test system: RPMI-8226
BT-549 = test system: BT-549
MDA-N = test system: MDA-N
SF-539 = test system: SF-539
SK-MEL-28 = test system: SK-MEL-28
M14 = test system: M14
SW-620 = test system: SW-620
RXF 393 = test system: RXF 393
KM12 = test system: KM12
MOLT-4 = test system: MOLT-4
Hs-578T = test system: Hs-578T
SR = test system: SR
HT-29 = test system: HT-29
SF-268 = test system: SF-268
HOP-62 = test system: HOP-62
T47D = test system: T47D

Measured: GI50

CCOC(=O)C1=CN=C2C(=O)N(c3ccccc3)N(C)C2(C)C1=N (configuration not stated)
> 100 µM: HCT-15
inactive: SN12C > 100 µM | A549 > 100 µM | MDA-MB-231 > 100 µM | U-251 > 100 µM | OVCAR-5 > 100 µM | K562 > 100 µM | UACC-62 > 100 µM | UACC-257 > 100 µM | MCF7 > 100 µM | ACHN > 100 µM | 786-0 > 100 µM | SNB-19 > 100 µM | NCI-H522 > 100 µM | SF-295 > 100 µM | SK-MEL-2 > 100 µM | A498 > 100 µM | SK-MEL-5 > 100 µM | Malme-3M > 100 µM | IGROV-1 > 100 µM | OVCAR-3 > 100 µM | CAKI-1 > 100 µM | TK-10 > 100 µM | NCI-H226 > 100 µM | HL-60 > 100 µM | SK-OV-3 > 100 µM | PC-3 > 100 µM | MDA-MB-435 > 100 µM | OVCAR-8 > 100 µM | NCI-H460 > 100 µM | UO-31 > 100 µM | HCT-116 > 100 µM | EKVX > 100 µM | NCI-H23 > 100 µM | CCRF-CEM > 100 µM | DU-145 > 100 µM | HOP-92 > 100 µM | SNB-75 > 100 µM | COLO 205 > 100 µM | LOX IMVI > 100 µM | NCI/ADR-RES > 100 µM | HCC 2998 > 100 µM | OVCAR-4 > 100 µM | RPMI-8226 > 100 µM | BT-549 > 100 µM | MDA-N > 100 µM | SF-539 > 100 µM | SK-MEL-28 > 100 µM | M14 > 100 µM | SW-620 > 100 µM | RXF 393 > 100 µM | KM12 > 100 µM

CC(C)CC[C@H](O)[C@@H](C)[C@H]1[C@@H](OC2OC(C)C(O)C(O)C2O)C[C@H]2[C@@H]3CC=C4C[C@@H](O)CC[C@]4(C)[C@H]3[C@@H](O)C[C@]12C (some centres not stated)
inactive: SN12C > 100 µM | OVCAR-5 > 24.9 µM | UACC-257 1.12 µM | ACHN > 27.7 µM | SNB-19 > 100 µM | NCI-H522 3.69 µM | SK-MEL-2 > 27 µM | A498 3.46 µM | SK-MEL-5 3.35 µM | Malme-3M 1.85 µM | IGROV-1 4.42 µM | OVCAR-3 > 100 µM | CAKI-1 2.58 µM | SK-OV-3 > 100 µM | MDA-MB-435 1.55 µM | OVCAR-8 > 100 µM | UO-31 1.77 µM | EKVX 11.4 µM | NCI-H23 8.49 µM | SNB-75 5.4 µM | COLO 205 1.8 µM | NCI/ADR-RES > 92.9 µM | HCC 2998 > 100 µM | HT-29 1.75 µM | SF-268 1.58 µM | M14 1.55 µM | KM12 3.28 µM
active: MOLT-4 0.0904 µM | U-251 0.0562 µM | K562 0.235 µM | UACC-62 0.538 µM | MCF7 0.656 µM | 786-0 0.084 µM | SF-295 0.0402 µM | TK-10 0.692 µM | HL-60 0.098 µM | Hs-578T 0.121 µM | NCI-H460 0.241 µM | HCT-116 0.258 µM | CCRF-CEM 0.25 µM | SR 0.143 µM | HOP-92 0.312 µM | LOX IMVI 0.889 µM | RPMI-8226 0.0631 µM | BT-549 0.491 µM | SF-539 0.0337 µM | SK-MEL-28 0.506 µM | HOP-62 0.301 µM | SW-620 0.533 µM | RXF 393 0.124 µM
> 56.1 µM: HCT-15

CCOC(=O)C1C=C1C(C)(C)O (configuration not stated)
inactive: SN12C > 10 µM | A549 > 10 µM | MOLT-4 > 10 µM | U-251 > 10 µM | OVCAR-5 > 10 µM | K562 > 10 µM | UACC-257 > 10 µM | MCF7 > 10 µM | ACHN > 10 µM | 786-0 > 10 µM | SNB-19 > 10 µM | SF-295 > 10 µM | SK-MEL-2 > 10 µM | A498 > 10 µM | SK-MEL-5 > 10 µM | Malme-3M > 10 µM | IGROV-1 > 10 µM | OVCAR-3 > 10 µM | TK-10 > 10 µM | NCI-H226 > 10 µM | HL-60 > 10 µM | SK-OV-3 > 10 µM | PC-3 > 10 µM | MDA-MB-435 > 10 µM | Hs-578T > 10 µM | OVCAR-8 > 10 µM | NCI-H460 > 10 µM | UO-31 > 10 µM | EKVX > 10 µM | NCI-H23 > 10 µM | CCRF-CEM > 10 µM | T47D 7.24 µM | DU-145 > 10 µM | SR > 10 µM | HOP-92 > 10 µM | SNB-75 > 10 µM | LOX IMVI > 10 µM | RPMI-8226 > 10 µM | BT-549 > 10 µM | SF-539 > 10 µM | HT-29 > 10 µM | SK-MEL-28 > 10 µM | SF-268 > 10 µM | M14 > 10 µM | HOP-62 > 10 µM | SW-620 > 10 µM | RXF 393 > 10 µM | KM12 > 10 µM
> 10 µM: HCT-15

O=S1(=O)N=C(NCc2c[nH]c3ccccc23)N(c2ccccc2)c2ccncc21
> 100 µM: HCT-15
inactive: SN12C 81.7 µM | A549 > 100 µM | MDA-MB-231 > 100 µM | MOLT-4 > 100 µM | U-251 49.4 µM | OVCAR-5 > 100 µM | K562 > 100 µM | UACC-62 > 100 µM | UACC-257 > 100 µM | MCF7 > 100 µM | ACHN > 100 µM | 786-0 53.3 µM | SNB-19 34.9 µM | NCI-H522 25.1 µM | SF-295 > 100 µM | SK-MEL-2 > 100 µM | A498 > 100 µM | SK-MEL-5 > 100 µM | Malme-3M > 100 µM | OVCAR-3 > 100 µM | CAKI-1 > 100 µM | TK-10 > 100 µM | NCI-H226 60.3 µM | HL-60 > 100 µM | SK-OV-3 40.2 µM | PC-3 > 100 µM | MDA-MB-435 > 100 µM | Hs-578T 31.7 µM | OVCAR-8 27.4 µM | NCI-H460 > 100 µM | UO-31 5.25 µM | HCT-116 > 100 µM | EKVX 64.9 µM | NCI-H23 > 100 µM | CCRF-CEM > 100 µM | T47D > 100 µM | DU-145 > 100 µM | HOP-92 22.6 µM | SNB-75 16.8 µM | COLO 205 > 100 µM | LOX IMVI > 100 µM | NCI/ADR-RES > 100 µM | HCC 2998 > 100 µM | OVCAR-4 > 100 µM | BT-549 55.1 µM | SF-539 66.4 µM | HT-29 > 100 µM | SK-MEL-28 > 100 µM | SF-268 27.5 µM | M14 > 100 µM | HOP-62 30 µM | SW-620 > 100 µM | RXF 393 > 100 µM | KM12 > 100 µM

COc1ccc([C@H]2[C@H](C)C3=Nc4ccccc4CN32)cc1
inactive: SN12C 63 µM | A549 55.1 µM | MDA-MB-231 > 100 µM | MOLT-4 36.8 µM | U-251 51.5 µM | OVCAR-5 > 100 µM | K562 39.2 µM | UACC-62 57.5 µM | UACC-257 > 100 µM | MCF7 59.7 µM | ACHN 86.9 µM | 786-0 54.1 µM | SNB-19 > 100 µM | NCI-H522 > 100 µM | SF-295 49.4 µM | SK-MEL-2 > 100 µM | A498 > 100 µM | SK-MEL-5 40.8 µM | Malme-3M > 100 µM | IGROV-1 63.7 µM | OVCAR-3 > 100 µM | CAKI-1 > 100 µM | TK-10 > 100 µM | NCI-H226 85.1 µM | HL-60 29.9 µM | PC-3 > 100 µM | MDA-MB-435 31.4 µM | Hs-578T > 100 µM | OVCAR-8 71.8 µM | NCI-H460 31.6 µM | UO-31 > 100 µM | HCT-116 33.8 µM | EKVX 96.8 µM | NCI-H23 69.8 µM | DU-145 > 100 µM | SR 36.8 µM | HOP-92 56.5 µM | COLO 205 45.1 µM | LOX IMVI 39.8 µM | NCI/ADR-RES > 100 µM | HCC 2998 41.9 µM | OVCAR-4 > 100 µM | RPMI-8226 33.7 µM | BT-549 > 100 µM | MDA-N 20.7 µM | SF-539 39.3 µM | HT-29 35.8 µM | SK-MEL-28 33.2 µM | SF-268 98.9 µM | M14 42.6 µM | HOP-62 > 100 µM | SW-620 39.9 µM | RXF 393 > 100 µM | KM12 42.6 µM
76.2 µM: HCT-15
